Patent US4460503A, “Tuberculine active peptides and a process for preparing same by chemical synthesis” (priority 1983, dated 1984)
Where a SMILES comes first, the peptide text is derived from it. Where no end group is shown, it is not given here.

What was measured:
[1] = peptides obtained after enzymatic digestion of the tuberculin-active protein; cited from earlier work
BCG-infected mice = conditions: cited from earlier work
[2] = system: Mycobacterium tuberculosis-sensitized guinea pigs; conditions: cited from earlier work
[3] = system: anti-octapeptide antiserum; assay type: binding, Rabbits
[4] = system: guinea pigs sensitized with heat-killed M. bovis BCG-Pasteur; assay: Tuberculin skin test in BCG-sensitized guinea pigs; assay type: in vivo; conditions: for skin reaction: 200 μg dose in 100 μl PBS intradermally; for skin reaction / color intensity of skin reaction: after 24 h; for color intensity of skin reaction: 200 μg dose intradermally; for enduration: 200 μg peptide intradermally
Method: (§1) The tuberculin tests were carried out on guinea pigs sensitized 6 weeks before with heat-killed Mycobacterium tuberculosis strain Peurois or M. bovis BCG-Pasteur.
(§2) Doses of 200 μg of the octopeptide of formula (I) or of the hexadecapeptide of formula (II) in 100 µl of PBS buffer containing Tween 80, were administered intradermally in the ventral side of guinea pigs sensitized as mentioned above.
(§3) The appearance of a delayed-type tuberculin reaction was observed 24 h and 48 h after the injection.

[5] = system: guinea pigs sensitized with heat-killed Mycobacterium tuberculosis strain Peurois; assay: Tuberculin skin test in M. tuberculosis strain Peurois-sensitized guinea pigs; conditions: 200 μg dose, after 24 h
Method: as §1, §2, §3

Molecule	tuberculin activity in skin tests [1]	amount required to displace half of the label in radioimmunoassays [3]	skin reaction [4]	color intensity of skin reaction [4]	enduration [4]	other results
NGSQMR [hexapeptide 70-75]	residual tuberculin activity					
NGSQMRL [synthetic heptapeptide]						tuberculin activity (BCG-infected mice): devoid of any tuberculin activity; tuberculin activity in skin tests [2]: devoid of any tuberculin activity
DGGSESEGK [nonapeptide 61-69]	residual tuberculin activity					
DGGSESEGKNGSQMRL [hexadecapeptide of formula (II)]		500 ng	8 mm	low color intensity	little or no enduration	level of recognition relative to octapeptide of formula (I) ([3]; taking into account the molecular weight): 0.1%; enduration (average) [5]: 12 mm; erythematous area, diameter (average) [5]: 11 mm
N[C@@H](CC(=O)O)C(=O)NCC(=O)NCC(=O)N[C@@H](CO)C(=O)N[C@@H](CCC(=O)O)C(=O)N[C@@H](CO)C(=O)N[C@@H](CCC(=O)O)C(=O)NCC(=O)O [octapeptide of formula (I), Asp-Gly-Gly-Ser-Glu-Ser-Glu-Gly] (H-DGGSESEG-OH)		0.25 ng	4 mm	low color intensity	little or no enduration	
